Experiments:
NATTS DZNR = molecular target: T1, NATTS DZNR (Slackia sp. NATTS, UniProt H3JUE4); experiment: daidzein reductase assay, HPLC; type: biochemical; conditions: NAD(P)H, anaerobic
T1 construct: gene ddce; synthetic gene in pETDuet-1, expressed in E. coli BL21 (DE3), purified
T1 sequence (H3JUE4 1-644): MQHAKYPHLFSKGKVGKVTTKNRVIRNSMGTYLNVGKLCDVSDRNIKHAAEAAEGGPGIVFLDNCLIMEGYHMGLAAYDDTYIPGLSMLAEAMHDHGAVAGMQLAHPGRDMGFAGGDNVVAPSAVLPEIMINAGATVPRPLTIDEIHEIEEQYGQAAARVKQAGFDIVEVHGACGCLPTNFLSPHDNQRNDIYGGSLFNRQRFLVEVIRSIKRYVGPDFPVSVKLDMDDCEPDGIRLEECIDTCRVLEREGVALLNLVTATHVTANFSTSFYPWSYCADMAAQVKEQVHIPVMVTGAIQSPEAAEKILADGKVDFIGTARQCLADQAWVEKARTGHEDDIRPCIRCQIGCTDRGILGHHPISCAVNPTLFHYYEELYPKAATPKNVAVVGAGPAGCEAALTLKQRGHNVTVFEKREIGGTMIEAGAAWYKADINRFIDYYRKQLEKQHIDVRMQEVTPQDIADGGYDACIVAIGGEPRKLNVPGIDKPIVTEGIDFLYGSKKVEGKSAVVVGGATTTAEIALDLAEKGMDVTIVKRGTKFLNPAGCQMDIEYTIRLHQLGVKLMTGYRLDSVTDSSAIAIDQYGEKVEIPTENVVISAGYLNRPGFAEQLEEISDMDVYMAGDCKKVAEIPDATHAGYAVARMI

Lac 20_92 DZNR = molecular target: T2, Lac 20_92 DZNR (Lactococcus garvieae, UniProt E1CIA4); experiment: daidzein reductase assay, HPLC; type: biochemical; conditions: NAD(P)H, anaerobic, 37°C
T2 construct: gene l-dznr; synthetic gene in pETDuet-1, expressed in E. coli BL21 (DE3), purified
T2 sequence (E1CIA4 1-644): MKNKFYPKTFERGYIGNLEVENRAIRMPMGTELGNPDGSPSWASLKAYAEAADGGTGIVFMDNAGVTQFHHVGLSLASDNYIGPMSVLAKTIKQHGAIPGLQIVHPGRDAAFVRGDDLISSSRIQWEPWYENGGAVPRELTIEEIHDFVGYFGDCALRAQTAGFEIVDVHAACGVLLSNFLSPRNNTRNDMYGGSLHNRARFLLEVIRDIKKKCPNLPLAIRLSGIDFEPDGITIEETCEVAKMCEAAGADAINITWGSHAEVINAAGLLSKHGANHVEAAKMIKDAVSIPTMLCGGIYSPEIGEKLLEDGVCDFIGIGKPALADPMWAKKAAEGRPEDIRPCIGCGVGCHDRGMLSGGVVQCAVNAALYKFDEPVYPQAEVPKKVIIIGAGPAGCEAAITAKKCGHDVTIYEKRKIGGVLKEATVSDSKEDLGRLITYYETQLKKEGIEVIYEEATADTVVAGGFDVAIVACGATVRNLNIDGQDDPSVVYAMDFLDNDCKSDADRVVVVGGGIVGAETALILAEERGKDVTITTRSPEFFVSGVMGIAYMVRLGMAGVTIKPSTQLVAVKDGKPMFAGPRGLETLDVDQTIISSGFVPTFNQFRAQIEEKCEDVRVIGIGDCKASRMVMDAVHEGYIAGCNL

Q: O=c1c(-c2ccc(O)cc2)coc2cc(O)ccc12 [daidzein, 7-hydroxy-3-(4-hydroxyphenyl)-4H-chromen-4-one] was tested. Which “daidzein reductase assay, HPLC” value (NATTS DZNR) did it give?
A: all recombinant proteins showed DZNR activity, which is an ability to convert DZN to DHD

Q: What about the “daidzein reductase assay, HPLC” value (Lac 20_92 DZNR) of the same compound?
A: all recombinant proteins showed DZNR activity, which is an ability to convert DZN to DHD

— PMC9164157, “Characterization and Identification of a New Daidzein Reductase Involved in (S)-Equol Biosynthesis in Clostridium sp. ZJ6” (Frontiers in Microbiology, 2022)
